Test results reported in ChEMBL document CHEMBL5500396, “Discovery, Multiparametric Optimization, and Solid-State Driven Identification of CHF-6550, a Novel Soft Dual Pharmacology Muscarinic Antagonist and β2 Agonist (MABA) for the Inhaled Treatment of Respiratory Diseases” (J Med Chem, 2024).

Assays:
in vitro [1] = details: rat, plasma
Description: Stability in rat plasma assessed as half-life at 5 uM incubated for 120 mins by LC-MS/MS analysis

[2] = target: Beta-2 adrenergic receptor (Homo sapiens, UniProt P07550)
Description: Displacement of [125I]-Cyanopindolol from human beta2 adrenoceptor assessed as inhibition constant incubated for 1 hrs by Microbeta scintillation counter

in vitro [3] = details: human, plasma
Description: Stability in human plasma assessed as half-life at 5 uM incubated for 120 mins by LC-MS/MS analysis

in vitro [4] = details: rat, hepatocytes
Description: Metabolic stability in rat hepatocytes assessed as clearance measured per 10^6 cells at 1 uM incubated for 90 mins by LC-MS/MS analysis

in vitro [5] = details: guinea pig, plasma
Description: Stability in guinea pig plasma assessed as half-life at 5 uM incubated for 120 mins by LC-MS/MS analysis

in vitro [6] = details: human, hepatocytes
Description: Metabolic stability in human hepatocytes assessed as clearance measured per 10^6 cells at 1 uM incubated for 90 mins by LC-MS/MS analysis

[7] = target: Muscarinic acetylcholine receptor M3 (Homo sapiens, UniProt P20309)
Chain of Muscarinic acetylcholine receptor M3 (P20309 whole entry): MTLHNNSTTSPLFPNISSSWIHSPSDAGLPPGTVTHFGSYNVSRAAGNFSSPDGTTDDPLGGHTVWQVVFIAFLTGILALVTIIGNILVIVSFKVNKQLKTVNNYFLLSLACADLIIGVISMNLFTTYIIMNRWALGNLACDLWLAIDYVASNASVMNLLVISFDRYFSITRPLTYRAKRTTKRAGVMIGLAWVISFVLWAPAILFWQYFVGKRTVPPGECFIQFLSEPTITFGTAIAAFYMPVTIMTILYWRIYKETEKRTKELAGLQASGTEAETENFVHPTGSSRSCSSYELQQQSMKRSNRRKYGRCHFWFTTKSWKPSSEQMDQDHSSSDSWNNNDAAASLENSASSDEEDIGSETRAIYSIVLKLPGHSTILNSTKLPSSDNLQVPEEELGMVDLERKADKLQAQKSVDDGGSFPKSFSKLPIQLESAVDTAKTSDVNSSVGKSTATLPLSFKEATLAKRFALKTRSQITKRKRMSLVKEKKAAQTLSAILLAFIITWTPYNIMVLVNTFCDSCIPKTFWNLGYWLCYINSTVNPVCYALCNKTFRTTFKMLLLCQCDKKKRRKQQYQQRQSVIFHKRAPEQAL
Description: Displacement of Scopolamine methyl chloride,[N-methyl-3H] from human muscarinic M3 receptor assessed as inhibition constant incubated for 2 hrs by Microbeta scintillation counter

Chain of Beta-2 adrenergic receptor (P07550 whole entry): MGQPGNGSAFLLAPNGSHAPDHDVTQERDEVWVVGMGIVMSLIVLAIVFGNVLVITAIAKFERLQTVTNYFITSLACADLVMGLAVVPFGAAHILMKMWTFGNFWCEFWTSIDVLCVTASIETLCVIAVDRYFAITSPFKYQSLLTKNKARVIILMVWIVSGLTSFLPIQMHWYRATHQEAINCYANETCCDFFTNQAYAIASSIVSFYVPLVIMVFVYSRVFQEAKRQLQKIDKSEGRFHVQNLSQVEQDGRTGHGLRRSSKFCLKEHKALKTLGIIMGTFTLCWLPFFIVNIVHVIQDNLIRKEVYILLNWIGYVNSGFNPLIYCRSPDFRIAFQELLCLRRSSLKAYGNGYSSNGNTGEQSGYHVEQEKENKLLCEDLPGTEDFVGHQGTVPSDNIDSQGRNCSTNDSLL

COc1cc(CNC[C@H](O)c2ccc(O)c3[nH]c(=O)ccc23)c(Cl)cc1C(=O)NCCCOc1cccc([C@](O)(C(=O)O[C@@H]2CCCN(C)C2)c2ccccc2)c1
half-life at 2 h, 5 µM (in vitro [1]): 2.17 h | Ki [2]: 0.1 nM | half-life at 2 h, 5 µM (in vitro [3]): > 2.5 h | hepatocyte CLint at 1.5 h, 1 µM (in vitro [4]): 66 µL/min/1e6 cells | half-life at 2 h, 5 µM (in vitro [5]): > 2.5 h | hepatocyte CLint at 1.5 h, 1 µM (in vitro [6]): 7 µL/min/1e6 cells

COc1cc(C(=O)N2CCC(c3cccc([C@](O)(C(=O)OCC4CCN(Cc5ccccc5)CC4)c4ccccc4)c3)CC2)ccc1CNC[C@H](O)c1ccc(O)c2[nH]c(=O)ccc12
half-life at 2 h, 5 µM (in vitro [1]): > 2.5 h | Ki [7]: 0.631 nM | Ki [2]: 0.501 nM | half-life at 2 h, 5 µM (in vitro [3]): > 2.5 h | hepatocyte CLint at 1.5 h, 1 µM (in vitro [4]): 29 µL/min/1e6 cells | half-life at 2 h, 5 µM (in vitro [5]): 0.583 h | hepatocyte CLint at 1.5 h, 1 µM (in vitro [6]): 28 µL/min/1e6 cells

O=C(c1ccc(OCc2ccc(CNC[C@H](O)c3ccc(O)c4[nH]c(=O)ccc34)cc2)cc1)N1CC(C(=O)OCC2CCN(Cc3ccccc3)CC2)(c2ccccc2)C1
Ki [7]: 7.94 nM | Ki [2]: 0.251 nM

CN1CCC[C@@H](OC(=O)[C@](O)(c2ccccc2)c2cccc(OCCCNC(=O)c3ccc(CNC[C@H](O)c4ccc(O)c5[nH]c(=O)ccc45)nc3)c2)C1.O=CO.O=CO
half-life at 2 h, 5 µM (in vitro [1]): 0.283 h | Ki [2]: 0.0251 nM | half-life at 2 h, 5 µM (in vitro [3]): > 2.5 h | hepatocyte CLint at 1.5 h, 1 µM (in vitro [4]): 20 µL/min/1e6 cells | half-life at 2 h, 5 µM (in vitro [5]): > 2.5 h | hepatocyte CLint at 1.5 h, 1 µM (in vitro [6]): < 2 µL/min/1e6 cells

CN1CCC(COC(=O)[C@@](O)(c2ccccc2)c2cccc(-c3ccc(CNC(=O)c4ccc(CNC[C@H](O)c5ccc(O)c6[nH]c(=O)ccc56)cc4)s3)c2)CC1
half-life at 2 h, 5 µM (in vitro [1]): > 2.5 h | Ki [7]: 0.158 nM | Ki [2]: 1 nM | half-life at 2 h, 5 µM (in vitro [3]): > 2.5 h | hepatocyte CLint at 1.5 h, 1 µM (in vitro [4]): 13 µL/min/1e6 cells | half-life at 2 h, 5 µM (in vitro [5]): 0.15 h | hepatocyte CLint at 1.5 h, 1 µM (in vitro [6]): 3 µL/min/1e6 cells

O=C(NCCCOc1cccc([C@](O)(C(=O)O[C@H]2CCCN(Cc3ccccc3)C2)c2ccccc2)c1)c1ccc(CNC[C@H](O)c2ccc(O)c3[nH]c(=O)ccc23)cc1.O=CO
half-life at 2 h, 5 µM (in vitro [1]): 0.183 h | Ki [2]: 0.501 nM | half-life at 2 h, 5 µM (in vitro [3]): > 2.5 h | hepatocyte CLint at 1.5 h, 1 µM (in vitro [4]): 53 µL/min/1e6 cells | half-life at 2 h, 5 µM (in vitro [5]): 0.25 h | hepatocyte CLint at 1.5 h, 1 µM (in vitro [6]): 19 µL/min/1e6 cells

O=C(NCCCOc1cccc([C@](O)(C(=O)O[C@@H]2CCCN(Cc3ccccc3)C2)c2ccccc2)c1)c1ccc(CNC[C@H](O)c2ccc(O)c3[nH]c(=O)ccc23)cc1.O=CO
half-life at 2 h, 5 µM (in vitro [1]): 0.0833 h | Ki [2]: 0.316 nM | half-life at 2 h, 5 µM (in vitro [3]): > 2.5 h | hepatocyte CLint at 1.5 h, 1 µM (in vitro [4]): 78 µL/min/1e6 cells | half-life at 2 h, 5 µM (in vitro [5]): > 2.5 h | hepatocyte CLint at 1.5 h, 1 µM (in vitro [6]): 20 µL/min/1e6 cells

O=C(NCCCOc1cccc([C@](O)(C(=O)OC[C@@H]2CCN(Cc3ccccc3)C2)c2ccccc2)c1)c1ccc(CNC[C@H](O)c2ccc(O)c3[nH]c(=O)ccc23)cc1
half-life at 2 h, 5 µM (in vitro [1]): 0.25 h | Ki [2]: 0.0794 nM | half-life at 2 h, 5 µM (in vitro [3]): > 2.5 h | hepatocyte CLint at 1.5 h, 1 µM (in vitro [4]): 37 µL/min/1e6 cells | half-life at 2 h, 5 µM (in vitro [5]): 0.967 h | hepatocyte CLint at 1.5 h, 1 µM (in vitro [6]): 5 µL/min/1e6 cells

O=C(NCCCOc1cccc([C@](O)(C(=O)OCC2CCN(C3CCCC3)CC2)c2ccccc2)c1)c1ccc(CNC[C@H](O)c2ccc(O)c3[nH]c(=O)ccc23)cc1
half-life at 2 h, 5 µM (in vitro [1]): 0.233 h | Ki [7]: 1.58 nM | Ki [2]: 0.02 nM | half-life at 2 h, 5 µM (in vitro [3]): > 2.5 h | hepatocyte CLint at 1.5 h, 1 µM (in vitro [4]): 51 µL/min/1e6 cells | half-life at 2 h, 5 µM (in vitro [5]): 2.32 h | hepatocyte CLint at 1.5 h, 1 µM (in vitro [6]): 5 µL/min/1e6 cells

Cc1cc(C(=O)NCCCOc2cccc([C@](O)(C(=O)O[C@@H]3CCCN(C)C3)c3ccccc3)c2)c(C)cc1CNC[C@H](O)c1ccc(O)c2[nH]c(=O)ccc12
half-life at 2 h, 5 µM (in vitro [1]): 0.5 h | Ki [2]: 0.0158 nM | half-life at 2 h, 5 µM (in vitro [3]): > 2.5 h | hepatocyte CLint at 1.5 h, 1 µM (in vitro [4]): 49 µL/min/1e6 cells | half-life at 2 h, 5 µM (in vitro [5]): 2.37 h | hepatocyte CLint at 1.5 h, 1 µM (in vitro [6]): 3 µL/min/1e6 cells

CN1CCC[C@@H](OC(=O)[C@](O)(c2ccccc2)c2cccc(OCCCNC(=O)c3cccc(CNC[C@H](O)c4ccc(O)c5[nH]c(=O)ccc45)c3)c2)C1
half-life at 2 h, 5 µM (in vitro [1]): 0.133 h | Ki [2]: 2 nM | half-life at 2 h, 5 µM (in vitro [3]): > 2.5 h | hepatocyte CLint at 1.5 h, 1 µM (in vitro [4]): 28 µL/min/1e6 cells | half-life at 2 h, 5 µM (in vitro [5]): 1.63 h | hepatocyte CLint at 1.5 h, 1 µM (in vitro [6]): 5 µL/min/1e6 cells

COc1cc(C(=O)NCCCOc2cccc([C@](O)(C(=O)O[C@@H]3CCCN(C)C3)c3ccccc3)c2)c(OC)cc1CNC[C@H](O)c1ccc(O)c2[nH]c(=O)ccc12
half-life at 2 h, 5 µM (in vitro [1]): > 2.5 h | Ki [2]: 0.0631 nM | half-life at 2 h, 5 µM (in vitro [3]): > 2.5 h | hepatocyte CLint at 1.5 h, 1 µM (in vitro [4]): 61 µL/min/1e6 cells | half-life at 2 h, 5 µM (in vitro [5]): > 2.5 h | hepatocyte CLint at 1.5 h, 1 µM (in vitro [6]): 6 µL/min/1e6 cells

CN1CCC[C@@H](OC(=O)[C@](O)(c2ccccc2)c2cccc(OCCCNC(=O)c3ccc(CNC[C@H](O)c4ccc(O)c5[nH]c(=O)ccc45)c(F)c3)c2)C1.O=CO
half-life at 2 h, 5 µM (in vitro [1]): 0.25 h | Ki [2]: 0.0126 nM | half-life at 2 h, 5 µM (in vitro [3]): > 2.5 h | hepatocyte CLint at 1.5 h, 1 µM (in vitro [4]): 54 µL/min/1e6 cells | half-life at 2 h, 5 µM (in vitro [5]): 1.4 h | hepatocyte CLint at 1.5 h, 1 µM (in vitro [6]): 6 µL/min/1e6 cells

O=C(NCCCCNC[C@H](O)c1ccc(O)c2[nH]c(=O)ccc12)c1ccc(C(=O)NC2(C(=O)O[C@H]3CN4CCC3CC4)CCc3ccccc32)cc1 (single isomer, unassigned)
Ki [7]: > 50.1 nM | Ki [2]: 0.398 nM

O=C(NCCCCNC[C@H](O)c1ccc(O)c2[nH]c(=O)ccc12)c1cccc(C(=O)NC2(C(=O)O[C@H]3CN4CCC3CC4)CCc3ccccc32)c1 (single isomer, unassigned)
Ki [7]: 12.6 nM | Ki [2]: 1.58 nM
